How the values were obtained:
in vitro = conditions: human
Protocol: The wells contain 0.05% DMSO per volume. Cells were incubated at 37° C. in a 5% CO2 atmosphere. […] In parallel, compounds were incubated for three days in a set of white 384-well microtiter plates (Corning) and the cytotoxicity of compounds in HeLa cells was determined by measuring the ATP content of the cells using the ATPlite kit (Perkin Elmer, Zaventem, Belgium) according to the manufacturer's instructions. The CC50 was defined as the 50% concentration for cytotoxicity.

rgRSV224 virus = experiment: Antiviral activity: rgRSV224 (GFP) replication in HeLa cells; conditions: human respiratory syncytial virus, 72 h, read-out: RSV HELA EC50
Protocol: Black 384-well clear-bottom microtiter plates (Corning, Amsterdam, The Netherlands) were filled via acoustic drop ejection using the echo liquid handler (Labcyte, Sunnyvale, Calif.). 200 nL of compound stock solutions (100% DMSO) were transferred to the assay plates. 9 serial 4-fold dilutions of compound were made, creating per quadrant the same compound concentration. The assay was initiated by adding 10 μL of culture medium to each well (RPMI medium without phenol red, 10% FBS-heat inactivated, 0.04% gentamycin (50 mg/mL). All addition steps are done by using a multidrop dispenser (Thermo Scientific, Erembodegem, Belgium). Next, rgRSV224 virus (MOI=1) diluted in culture medium was added to the plates. rgRSV224 virus is an engineered virus that includes an additional GFP gene (Hallak L K, Spillmann D, Collins P L, Peeples M E. Glycosaminoglycan sulfation requirements for respiratory syncytial virus infection; Journal of virology (2000), 74(22), 10508-13) and was in-licensed from the NIH (Bethesda, Md., USA). Finally, 20 μL of a HeLa cell suspension (3,000 cells/well) were plated. Medium, virus- and mock-infected controls were included in each test. The wells contain 0.05% DMSO per volume. Cells were incubated at 37° C. in a 5% CO2 atmosphere. Three days post-virus exposure, viral replication was quantified by measuring GFP expression in the cells by an in house developed MSM laser microscope (Tibotec, Beerse, Belgium). The EC50 was defined as the 50% inhibitory concentration for GFP expression. In parallel, compounds were incubated for three days in a set of white 384-well microtiter plates (Corning) and the cytotoxicity of compounds in HeLa cells was determined by measuring the ATP content of the cells using the ATPlite kit (Perkin Elmer, Zaventem, Belgium) according to the manufacturer's instructions. The CC50 was defined as the 50% concentration for cytotoxicity.

## C[C@@H]1c2ccccc2CCN1C(=O)c1cc(C2CC2)n2c(F)c(-c3ccc([C@@H]4C[C@H]4C(=O)O)cc3F)nc2n1 (mixture of isomers) [Compound 25, trans-2-(4-{5-cyclopropyl-3-fluoro-7-[(1R)-1-methyl-1,2,3,4-tetrahydroisoquinoline-2-carbonyl]imidazo[1,2-a]pyrimidin-2-yl}-3-fluorophenyl)cyclopropane-1-carboxylic Acid]
In vitro
  CC50 at 3 days: 22.3 µM
rgRSV224 virus
  EC50: 0.112 µM

## C[C@@H]1c2ccccc2CCN1C(=O)c1cc(C2CC2)n2c(F)c(-c3ccc([C@H]4C[C@H]4C(=O)O)cc3F)nc2n1 (mixture of isomers) [Compound 26, cis-2-(4-{5-cyclopropyl-3-fluoro-7-[(1R)-1-methyl-1,2,3,4-tetrahydroisoquinoline-2-carbonyl]imidazo[1,2-a]pyrimidin-2-yl}-3-fluorophenyl)cyclopropane-1-carboxylic Acid]
In vitro
  CC50 at 3 days: 77.2 µM
rgRSV224 virus
  EC50: 3.42 µM

## CCc1cc(C(=O)N2CCc3ccccc3[C@H]2C)cc2cc(-c3ccc(C4C[C@H]4C(=O)O)cc3F)nn12 (relative stereo) [Compound 4, Trans-2-(4-{7-ethyl-5-[(1R)-1-methyl-1,2,3,4-tetrahydroisoquinoline-2-carbonyl]pyrazolo[1,5-a]pyridin-2-yl}-3-fluorophenyl)cyclopropane-1-carboxylic Acid]
In vitro
  CC50 at 3 days: 57.6 µM
rgRSV224 virus
  EC50: 0.219 µM

## CCc1cc(C(=O)N2CCc3ccccc3[C@H]2C)c(OC)c2cc(-c3ccc(C4C[C@H]4C(=O)O)cc3F)nn12 (relative stereo) [Compound 5, trans-2-(4-{7-Ethyl-4-methoxy-5-[(1R)-1-methyl-1,2,3,4-tetrahydroisoquinoline-2-carbonyl]pyrazolo[1,5-a]pyridin-2-yl}-3-fluorophenyl)cyclopropane-1-carboxylic Acid]
In vitro
  CC50 at 3 days: 47.2 µM
rgRSV224 virus
  EC50: 1.7 µM

## C[C@@H]1c2ccccc2CCN1C(=O)c1cc(C2CC2)n2nc(-c3ccc(C4C[C@H]4C(=O)O)cc3F)cc2c1F (relative stereo) [Compound 6, trans-2-(4-{7-Cyclopropyl-4-fluoro-5-[(1R)-1-methyl-1,2,3,4-tetrahydroisoquinoline-2-carbonyl]pyrazolo[1,5-a]pyridin-2-yl}-3-fluorophenyl)cyclopropane-1-carboxylic Acid]
In vitro
  CC50 at 3 days: 50.2 µM
rgRSV224 virus
  EC50: 0.09 µM

## C[C@@H]1c2ccccc2CCN1C(=O)c1cc(C2CC2)n2nc(-c3ccc(C4C[C@H]4C(=O)O)cc3F)nc2c1 (relative stereo) [Compound 16, trans-2-(4-{5-Cyclopropyl-7-[(1R)-1-methyl-1,2,3,4-tetrahydroisoquinoline-2-carbonyl]-[1,2,4]triazolo[1,5-a]pyridin-2-yl}-3-fluorophenyl)cyclopropane-1-carboxylic Acid]
In vitro
  CC50 at 3 days: 79.4 µM
rgRSV224 virus
  EC50: 0.182 µM

## C[C@@H]1c2ccccc2CCN1C(=O)c1cc(C2CC2)n2nc(-c3ccc(C4C[C@@H]4C(=O)O)cc3F)nc2c1 (relative stereo) [Compound 17, cis-2-(4-{5-Cyclopropyl-7-[(1R)-1-methyl-1,2,3,4-tetrahydroisoquinoline-2-carbonyl]-[1,2,4]triazolo[1,5-a]pyridin-2-yl}-3-fluorophenyl)cyclopropane-1-carboxylic Acid]
In vitro
  CC50 at 3 days: > 100 µM
rgRSV224 virus
  EC50: 2.01 µM

## C[C@@H]1c2ccccc2CCN1C(=O)c1cc(C2CC2)n2nc(-c3ccc(C4C[C@H]4C(N)=O)cc3F)nc2c1 (relative stereo) [Compound 18, trans-2-(4-{5-Cyclopropyl-7-[(1R)-1-methyl-1,2,3,4-tetrahydroisoquinoline-2-carbonyl]-[1,2,4]triazolo[1,5-a]pyridin-2-yl}-3-fluorophenyl)cyclopropane-1-carboxamide]
In vitro
  CC50 at 3 days: 47.9 µM
rgRSV224 virus
  EC50: 0.178 µM

## C[C@@H]1c2ccccc2CCN1C(=O)c1cc(C2CC2)n2cc(-c3ccc(C4C[C@H]4C(=O)O)cc3F)nc2n1 (relative stereo) [Compound 24, trans-2-(4-{5-Cyclopropyl-7-[(1R)-1-methyl-1,2,3,4-tetrahydroisoquinoline-2-carbonyl]imidazo[1,2-a]pyrimidin-2-yl}-3-fluorophenyl)cyclopropane-1-carboxylic Acid]
In vitro
  CC50 at 3 days: 69.7 µM
rgRSV224 virus
  EC50: 0.105 µM

## CCc1cc(C(=O)N2CCc3ccccc3[C@H]2C)cc2cc(-c3ccc([C@H]4C[C@@H]4C(=O)O)cc3F)cn12 [Compound 1, (1S,2S)-2-(4-{5-Ethyl-7-[(1R)-1-methyl-1,2,3,4-tetrahydroisoquinoline-2-carbonyl]indolizin-2-yl}-3-fluorophenyl)cyclopropane-1-carboxylic Acid]
In vitro
  CC50 at 3 days: 45.1 µM
rgRSV224 virus
  EC50: 0.195 µM

## CCc1cc(C(=O)N2CCc3ccccc3[C@H]2C)cc2cc(-c3ccc([C@H]4C[C@@H]4C(N)=O)cc3F)cn12 [Compound 2]
In vitro
  CC50 at 3 days: 52.7 µM
rgRSV224 virus
  EC50: 0.344 µM

## CCc1cc(C(=O)N2CCc3ccccc3[C@H]2C)cc2cc(-c3ccc(N4CC[C@H](C(=O)O)C4)cc3F)cn12 [Compound 3, (3S)-1-(4-{5-Ethyl-7-[(1R)-1-methyl-1,2,3,4-tetrahydroisoquinoline-2-carbonyl]indolizin-2-yl}-3-fluorophenyl)pyrrolidine-3-carboxylic Acid]
In vitro
  CC50 at 3 days: 44 µM
rgRSV224 virus
  EC50: 0.218 µM

## C[C@@H]1c2ccccc2CCN1C(=O)c1cc(C2CC2)n2nc(-c3ccc(N4CC[C@H](C(=O)O)C4)cc3F)cc2c1 [Compound 7, (3S)-1-(4-{7-Cyclopropyl-5-[(1R)-1-methyl-1,2,3,4-tetrahydroisoquinoline-2-carbonyl]pyrazolo[1,5-a]pyridin-2-yl}-3-fluorophenyl)pyrrolidine-3-carboxylic Acid]
In vitro
  CC50 at 3 days: 48 µM
rgRSV224 virus
  EC50: 0.064 µM

## C[C@@H]1c2ccccc2CCN1C(=O)c1cc(C2CC2)n2nc(-c3ccc(N4CC[C@H](C(N)=O)C4)cc3F)cc2c1 [Compound 8, (3S)-1-(4-{7-Cyclopropyl-5-[(1R)-1-methyl-1,2,3,4-tetrahydroisoquinoline-2-carbonyl]pyrazolo[1,5-a]pyridin-2-yl}-3-fluorophenyl)pyrrolidine-3-carboxamide]
In vitro
  CC50 at 3 days: 53.4 µM
rgRSV224 virus
  EC50: 0.054 µM

## CCc1cc(C(=O)N2CCc3ccccc3[C@H]2C)c(C)c2cc(-c3ccc(N4CC[C@H](C(=O)O)C4)cc3F)nn12 [Compound 9, (3S)-1-(4-{7-Ethyl-4-methyl-5-[(1R)-1-methyl-1,2,3,4-tetrahydroisoquinoline-2-carbonyl]pyrazolo[1,5-a]pyridin-2-yl}-3-fluorophenyl)pyrrolidine-3-carboxylic Acid]
In vitro
  CC50 at 3 days: 50.6 µM
rgRSV224 virus
  EC50: 0.596 µM

## C[C@@H]1c2ccccc2CCN1C(=O)c1cc(C2CC2)n2nc(-c3ccc(N4CC[C@H](C(N)=O)C4)cc3F)cc2c1F [Compound 10, (3S)-1-(4-{7-Cyclopropyl-4-fluoro-5-[(1R)-1-methyl-1,2,3,4-tetrahydroisoquinoline-2-carbonyl]pyrazolo[1,5-a]pyridin-2-yl}-3-fluorophenyl)pyrrolidine-3-carboxamide]
In vitro
  CC50 at 3 days: 40.4 µM
rgRSV224 virus
  EC50: 0.062 µM

## C[C@@H]1c2ccccc2CCN1C(=O)c1cc(C2CC2)n2nc(-c3ccc(N4CC[C@H](C(=O)O)C4)cc3F)nc2c1 [Compound 19, (3S)-1-(4-{5-Cyclopropyl-7-[(1R)-1-methyl-1,2,3,4-tetrahydroisoquinoline-2-carbonyl]-[1,2,4]triazolo[1,5-a]pyridin-2-yl}-3-fluorophenyl)pyrrolidine-3-carboxylic Acid]
In vitro
  CC50 at 3 days: 60.9 µM
rgRSV224 virus
  EC50: 0.1 µM

## C[C@@H]1c2ccccc2CCN1C(=O)c1cc(C2CC2)n2nc(-c3ccc(N4CC[C@H](C(N)=O)C4)cc3F)nc2c1 [Compound 20, (3S)-1-(4-{5-Cyclopropyl-7-[(1R)-1-methyl-1,2,3,4-tetrahydroisoquinoline-2-carbonyl]-[1,2,4]triazolo[1,5-a]pyridin-2-yl}-3-fluorophenyl)pyrrolidine-3-carboxamide]
In vitro
  CC50 at 3 days: 45.6 µM
rgRSV224 virus
  EC50: 0.102 µM

## C[C@@H]1c2ccccc2CCN1C(=O)c1cc2cc(-c3ccc(N4CC[C@H](C(=O)O)C4)cc3F)nn2c(C2CC2)n1 [Compound 21, (3S)-1-(4-{7-Cyclopropyl-5-[(1R)-1-methyl-1,2,3,4-tetrahydroisoquinoline-2-carbonyl]pyrazolo[1,5-c]pyrimidin-2-yl}-3-fluorophenyl)pyrrolidine-3-carboxylic Acid]
In vitro
  CC50 at 3 days: 29.8 µM
rgRSV224 virus
  EC50: 0.564 µM

## C[C@@H]1c2ccccc2CCN1C(=O)c1cc2cc(-c3ccc(N4CC[C@H](C(N)=O)C4)cc3F)nn2c(C2CC2)n1 [Compound 22, (3S)-1-(4-{7-Cyclopropyl-5-[(1R)-1-methyl-1,2,3,4-tetrahydroisoquinoline-2-carbonyl]pyrazolo[1,5-c]pyrimidin-2-yl}-3-fluorophenyl)pyrrolidine-3-carboxamide]
In vitro
  CC50 at 3 days: > 100 µM
rgRSV224 virus
  EC50: 0.87 µM

## CNC(=O)[C@H]1CCN(c2ccc(-c3cc4cc(C(=O)N5CCc6ccccc6[C@H]5C)nc(C5CC5)n4n3)c(F)c2)C1 [Compound 23, (3S)-1-(4-{7-Cyclopropyl-5-[(1R)-1-methyl-1,2,3,4-tetrahydroisoquinoline-2-carbonyl]pyrazolo[1,5-c]pyrimidin-2-yl}-3-fluorophenyl)-N-methylpyrrolidine-3-carboxamide]
In vitro
  CC50 at 3 days: > 100 µM
rgRSV224 virus
  EC50: 0.882 µM

## C[C@@H]1c2ccccc2CCN1C(=O)c1cc(C2CC2)n2cc(-c3ccc(N4CC[C@H](C(=O)O)C4)cc3F)nc2n1 [Compound 27, (3S)-1-(4-{5-Cyclopropyl-7-[(1R)-1-methyl-1,2,3,4-tetrahydroisoquinoline-2-carbonyl]imidazo[1,2-a]pyrimidin-2-yl}-3-fluorophenyl)pyrrolidine-3-carboxylic Acid]
In vitro
  CC50 at 3 days: 40.4 µM
rgRSV224 virus
  EC50: 0.159 µM

## C[C@@H]1c2ccccc2CCN1C(=O)c1cc(C2CC2)n2cc(-c3ccc(N4CC[C@H](C(N)=O)C4)cc3F)nc2n1 [Compound 28, (3S)-1-(4-{5-Cyclopropyl-7-[(1R)-1-methyl-1,2,3,4-tetrahydroisoquinoline-2-carbonyl]imidazo[1,2-a]pyrimidin-2-yl}-3-fluorophenyl)pyrrolidine-3-carboxamide]
In vitro
  CC50 at 3 days: 22.3 µM
rgRSV224 virus
  EC50: 0.112 µM
